Assay results as given in patent US10725001B2, “Liquid crystal composition, pH sensing device using the same, and pH sensing device kit using the same” (Tamkang University, priority 2016, dated 2020).

assay: Acid dissociation constants (pKa) of the dopant compounds; type: physicochemical; settings: read-out: acid dissociation constant (pKa)

Point of comparison: `CCCCCCCCCCOc1ccc(-c2ccc(C(=O)O)cc2)cc1` [Formula (I-3)], pKa 9.77. Against it:
- CCCCCCCCCCCCOc1ccc(-c2ccc(C(=O)O)cc2)cc1 [Formula (I-4)] — lower, 8.74
- CCCCCCCCOc1ccc(-c2ccc(C(=O)O)cc2)cc1 [Formula (I-2)] — lower, 7.66
- CCCCCCc1ccc(-c2ccc(C(=O)O)cc2)cc1 [Formula (I-1)] — lower, 7.68
